Measured values reported in ChEMBL document CHEMBL1201862, “PubChem BioAssay data set” (2004).
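Where inhibition never reached the appropriate level, the endpoint shown equals the highest concentration tested. Otherwise, values were interpolated linearly from a five-concentration, 48-hour dose response in 96-well plates. GI50 = concentration required for 50% inhibition of growth.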 Active and inactive are the calls of the source. Rule as the data show it: active = GI50 up to about 1.1 µM and inactive = higher.

Legend:
Assay in all cases: DTP human tumour cell line panel, 48 h
786-0 = test system: 786-0
A498 = test system: A498
A549 = test system: A549
ACHN = test system: ACHN
BT-549 = test system: BT-549
CAKI-1 = test system: CAKI-1
CCRF-CEM = test system: CCRF-CEM
COLO 205 = test system: COLO 205
DU-145 = test system: DU-145
EKVX = test system: EKVX
HCC 2998 = test system: HCC 2998
HCT-116 = test system: HCT-116
HCT-15 = test system: HCT-15
HL-60 = test system: HL-60
HOP-62 = test system: HOP-62
HOP-92 = test system: HOP-92
HT-29 = test system: HT-29
Hs-578T = test system: Hs-578T
IGROV-1 = test system: IGROV-1
K562 = test system: K562
KM12 = test system: KM12
LOX IMVI = test system: LOX IMVI
M14 = test system: M14
MCF7 = test system: MCF7
MDA-MB-231 = test system: MDA-MB-231
MDA-MB-435 = test system: MDA-MB-435
MDA-N = test system: MDA-N
MOLT-4 = test system: MOLT-4
Malme-3M = test system: Malme-3M
NCI-H226 = test system: NCI-H226
NCI-H23 = test system: NCI-H23
NCI-H460 = test system: NCI-H460
NCI-H522 = test system: NCI-H522
NCI/ADR-RES = test system: NCI/ADR-RES
OVCAR-3 = test system: OVCAR-3
OVCAR-4 = test system: OVCAR-4
OVCAR-5 = test system: OVCAR-5
OVCAR-8 = test system: OVCAR-8
PC-3 = test system: PC-3
RPMI-8226 = test system: RPMI-8226
SF-268 = test system: SF-268
SF-295 = test system: SF-295
SF-539 = test system: SF-539
SK-MEL-28 = test system: SK-MEL-28
SK-MEL-2 = test system: SK-MEL-2
SK-MEL-5 = test system: SK-MEL-5
SK-OV-3 = test system: SK-OV-3
SN12C = test system: SN12C
SNB-19 = test system: SNB-19
SNB-75 = test system: SNB-75
SR = test system: SR
SW-620 = test system: SW-620
T47D = test system: T47D
TK-10 = test system: TK-10
U-251 = test system: U-251
UACC-257 = test system: UACC-257
UACC-62 = test system: UACC-62
UO-31 = test system: UO-31

CC(=O)N(C(C)=O)n1c(Cc2ccc(C)cc2)nn(C(C)=O)c1=O
GI50 (786-0): > 100 µM (inactive) | GI50 (A498): > 100 µM (inactive) | GI50 (A549): > 100 µM (inactive) | GI50 (ACHN): > 100 µM (inactive) | GI50 (BT-549): > 100 µM (inactive) | GI50 (CAKI-1): > 100 µM (inactive) | GI50 (CCRF-CEM): > 100 µM (inactive) | GI50 (COLO 205): > 100 µM (inactive) | GI50 (DU-145): > 100 µM (inactive) | GI50 (EKVX): > 100 µM (inactive) | GI50 (HCC 2998): > 100 µM (inactive) | GI50 (HCT-116): > 100 µM (inactive) | GI50 (HCT-15): > 100 µM | GI50 (HL-60): > 100 µM (inactive) | GI50 (HOP-62): > 100 µM (inactive) | GI50 (HOP-92): > 100 µM (inactive) | GI50 (HT-29): > 100 µM (inactive) | GI50 (Hs-578T): > 100 µM (inactive) | GI50 (IGROV-1): > 100 µM (inactive) | GI50 (K562): > 100 µM (inactive) | GI50 (KM12): > 100 µM (inactive) | GI50 (LOX IMVI): > 100 µM (inactive) | GI50 (M14): > 100 µM (inactive) | GI50 (MCF7): > 100 µM (inactive) | GI50 (MDA-MB-231): > 100 µM (inactive) | GI50 (MDA-MB-435): > 100 µM (inactive) | GI50 (MDA-N): > 100 µM (inactive) | GI50 (MOLT-4): > 100 µM (inactive) | GI50 (Malme-3M): > 100 µM (inactive) | GI50 (NCI-H226): > 100 µM (inactive) | GI50 (NCI-H23): > 100 µM (inactive) | GI50 (NCI-H460): > 100 µM (inactive) | GI50 (NCI-H522): > 100 µM (inactive) | GI50 (NCI/ADR-RES): > 100 µM (inactive) | GI50 (OVCAR-3): > 100 µM (inactive) | GI50 (OVCAR-4): > 100 µM (inactive) | GI50 (OVCAR-5): > 100 µM (inactive) | GI50 (OVCAR-8): > 100 µM (inactive) | GI50 (PC-3): > 100 µM (inactive) | GI50 (RPMI-8226): > 100 µM (inactive) | GI50 (SF-268): > 100 µM (inactive) | GI50 (SF-295): > 100 µM (inactive) | GI50 (SF-539): > 100 µM (inactive) | GI50 (SK-MEL-28): > 100 µM (inactive) | GI50 (SK-MEL-2): > 100 µM (inactive) | GI50 (SK-MEL-5): > 100 µM (inactive) | GI50 (SK-OV-3): > 100 µM (inactive) | GI50 (SN12C): > 100 µM (inactive) | GI50 (SNB-19): > 100 µM (inactive) | GI50 (SNB-75): > 100 µM (inactive) | GI50 (SR): > 100 µM (inactive) | GI50 (SW-620): > 100 µM (inactive) | GI50 (T47D): > 100 µM (inactive) | GI50 (TK-10): > 100 µM (inactive) | GI50 (U-251): > 100 µM (inactive) | GI50 (UACC-257): > 100 µM (inactive) | GI50 (UACC-62): > 100 µM (inactive) | GI50 (UO-31): > 100 µM (inactive)

Cc1ccc(Cc2n[nH]c(=O)[nH]2)cc1
GI50 (786-0): > 100 µM (inactive) | GI50 (A498): > 100 µM (inactive) | GI50 (A549): > 100 µM (inactive) | GI50 (ACHN): > 100 µM (inactive) | GI50 (BT-549): > 100 µM (inactive) | GI50 (CAKI-1): > 100 µM (inactive) | GI50 (CCRF-CEM): > 100 µM (inactive) | GI50 (COLO 205): > 100 µM (inactive) | GI50 (DU-145): > 100 µM (inactive) | GI50 (EKVX): > 100 µM (inactive) | GI50 (HCC 2998): > 100 µM (inactive) | GI50 (HCT-116): > 100 µM (inactive) | GI50 (HCT-15): > 100 µM | GI50 (HL-60): > 100 µM (inactive) | GI50 (HOP-62): > 100 µM (inactive) | GI50 (HOP-92): > 100 µM (inactive) | GI50 (HT-29): > 100 µM (inactive) | GI50 (Hs-578T): > 100 µM (inactive) | GI50 (IGROV-1): > 100 µM (inactive) | GI50 (K562): > 100 µM (inactive) | GI50 (KM12): > 100 µM (inactive) | GI50 (LOX IMVI): > 100 µM (inactive) | GI50 (M14): > 100 µM (inactive) | GI50 (MCF7): 28.6 µM (inactive) | GI50 (MDA-MB-231): > 100 µM (inactive) | GI50 (MDA-MB-435): > 100 µM (inactive) | GI50 (MDA-N): > 100 µM (inactive) | GI50 (MOLT-4): > 100 µM (inactive) | GI50 (Malme-3M): > 100 µM (inactive) | GI50 (NCI-H226): > 100 µM (inactive) | GI50 (NCI-H23): > 100 µM (inactive) | GI50 (NCI-H460): > 100 µM (inactive) | GI50 (NCI/ADR-RES): > 100 µM (inactive) | GI50 (OVCAR-3): > 100 µM (inactive) | GI50 (OVCAR-4): > 100 µM (inactive) | GI50 (OVCAR-5): > 100 µM (inactive) | GI50 (OVCAR-8): > 100 µM (inactive) | GI50 (PC-3): > 100 µM (inactive) | GI50 (SF-295): > 100 µM (inactive) | GI50 (SF-539): > 100 µM (inactive) | GI50 (SK-MEL-28): > 100 µM (inactive) | GI50 (SK-MEL-2): > 100 µM (inactive) | GI50 (SK-MEL-5): > 100 µM (inactive) | GI50 (SK-OV-3): > 100 µM (inactive) | GI50 (SN12C): > 100 µM (inactive) | GI50 (SNB-19): > 100 µM (inactive) | GI50 (SNB-75): > 100 µM (inactive) | GI50 (SR): > 100 µM (inactive) | GI50 (SW-620): > 100 µM (inactive) | GI50 (T47D): > 100 µM (inactive) | GI50 (TK-10): > 100 µM (inactive) | GI50 (U-251): > 100 µM (inactive) | GI50 (UACC-257): > 100 µM (inactive) | GI50 (UACC-62): > 100 µM (inactive) | GI50 (UO-31): > 100 µM (inactive)
